Patent publication US20070049564A1 (Wyeth, priority 2005, published 2007)
Converted amounts (≈) assume the structure as drawn. Read-outs that look alike come from different tables or passages of the source.

Legend:
E. faecalis GC 2265 = experiment: MIC, broth microdilution; settings: Enterococcus faecalis
E. coli GC 3226 = experiment: MIC, broth microdilution; settings: Escherichia coli
S. aureus GC 6469 = experiment: MIC, broth microdilution; settings: Staphylococcus aureus
S. aureus GC 6467 = experiment: MIC, broth microdilution; settings: Staphylococcus aureus
E. coli GC 2232 = experiment: MIC, broth microdilution; settings: Escherichia coli
S. aureus GC 4536 = experiment: MIC, broth microdilution; settings: Staphylococcus aureus
S. aureus GC 6466 = experiment: MIC, broth microdilution; settings: Staphylococcus aureus
S. typhimurium GC 2172 = experiment: MIC, broth microdilution; settings: Salmonella enterica, TYPHIMURIUM
S. pneumoniae* GC 4465 = experiment: MIC, broth microdilution; settings: Streptococcus pneumoniae
E. coli GC 2203 = experiment: MIC, broth microdilution; settings: Escherichia coli
E. coli GC 2272 = experiment: MIC, broth microdilution; settings: Escherichia coli
E. faecium GC 2243 = experiment: MIC, broth microdilution; settings: Enterococcus faecium
E. faecalis GC 4555 = experiment: MIC, broth microdilution; settings: Enterococcus faecalis
E. coli GC 6465 = experiment: MIC, broth microdilution; settings: Escherichia coli
S. agalactiae GC 4564 = experiment: MIC, broth microdilution; settings: Streptococcus agalactiae
Method: (§1) Antimicrobial susceptibility testing. The in vitro activities of the antibiotics are determined by the broth microdilution method as recommended by the National Committee for Clinical Laboratory Standards (NCCLS) (1). Mueller-Hinton II broth (MHBII)(BBL Cockeysville, Md.) is the medium employed in the testing procedures. Microtiter plates containing serial dilutions of each antimicrobial agent are inoculated with each organism to yield the appropriate density (10^5 CFU/ml) in a 100 μl final volume. The plates are incubated for 18-22 hours at 35° C. in ambient air.
(§2) Representative compounds were first incubated in mouse serum for an hour prior to the in vitro testing against a panel of selected gram-positive and gram-negative bacteria strains. All compounds were also pre-incubated in water for an hour prior to testing as control. Representative compounds of Formula I were incubated in human serum prior to MIC determination.

E. coli = experiment: Range of MIC for E. coli strains; settings: Escherichia coli
Method: as §1, §2

E. faecalis GC 2267 = experiment: MIC, broth microdilution; settings: Enterococcus faecalis
E. coli GC 4560 = experiment: MIC, broth microdilution; settings: Escherichia coli
E. coli GC 2231 = experiment: MIC, broth microdilution; settings: Escherichia coli
Staph. = experiment: Range of MIC for Staph. strains, including MRSA; settings: Staphylococcus aureus, MRSA
[1] = read-out: MINIMAL INHIBITORY CONCENTRATION MIC, pre-incubated in Mouse Serum
[2] = read-out: MINIMAL INHIBITORY CONCENTRATION MIC, pre-incubated in Water

In the case of `CCCN(CC(=O)Nc1cc(N(C)C)c2c(c1O)C(=O)C1=C(O)[C@]3(O)C(=O)C(C(N)=O)=C(O)[C@@H](N(C)C)[C@@H]3C[C@@H]1C2)C(=O)OCOC(=O)c1cccs1` [Example 25, ({[(2-{[(5aR,6aS,7S,10aS)-9-(aminocarbonyl)-4,7-bis(dimethylamino)-1,8,10a,11-tetrahydroxy-10,12-dioxo-5,5a,6,6a,7,10,10a,12-octahydrotetracen-2-yl]amino}-2-oxoethyl)(propyl)amino]carbonyl}oxy)methyl thiophene-2-carboxylate], the MIC (E. faecalis GC 2265; GC2265, read-out: MINIMAL INHIBITORY CONCENTRATION MIC, pre-incubated in Mouse Serum) was 2 µg/mL (≈ 2.65 µM), the MIC (E. faecalis GC 2265; GC2265, read-out: MINIMAL INHIBITORY CONCENTRATION MIC, pre-incubated in Water) was 2 µg/mL (≈ 2.65 µM) and the MIC (E. coli GC 3226; GC3226, read-out: MINIMAL INHIBITORY CONCENTRATION MIC, pre-incubated in Mouse Serum) was 2 µg/mL (≈ 2.65 µM). For the same compound, the MIC (E. coli GC 3226; GC3226, read-out: MINIMAL INHIBITORY CONCENTRATION MIC, pre-incubated in Water) was > 64 µg/mL, the MIC (S. aureus GC 6469; GC6469, read-out: MINIMAL INHIBITORY CONCENTRATION MIC, pre-incubated in Mouse Serum) was 2 µg/mL (≈ 2.65 µM) and the MIC (S. aureus GC 6469; GC6469, read-out: MINIMAL INHIBITORY CONCENTRATION MIC, pre-incubated in Water) was 4 µg/mL (≈ 5.29 µM). It also gave an MIC (S. aureus GC 6467; GC6467, read-out: MINIMAL INHIBITORY CONCENTRATION MIC, pre-incubated in Mouse Serum) of 2 µg/mL (≈ 2.65 µM), an MIC (S. aureus GC 6467; GC6467, read-out: MINIMAL INHIBITORY CONCENTRATION MIC, pre-incubated in Water) of 2 µg/mL (≈ 2.65 µM) and an MIC (E. coli GC 2232; GC2232, read-out: MINIMAL INHIBITORY CONCENTRATION MIC, pre-incubated in Mouse Serum) of 1 µg/mL (≈ 1.32 µM). The MIC (E. coli GC 2232; GC2232, read-out: MINIMAL INHIBITORY CONCENTRATION MIC, pre-incubated in Water) was > 64 µg/mL, the MIC (S. aureus GC 4536; GC4536, read-out: MINIMAL INHIBITORY CONCENTRATION MIC, pre-incubated in Mouse Serum) was 0.5 µg/mL (≈ 0.662 µM) and the MIC (S. aureus GC 4536; GC4536, read-out: MINIMAL INHIBITORY CONCENTRATION MIC, pre-incubated in Water) was 0.5 µg/mL (≈ 0.662 µM). For the same compound, the MIC (S. aureus GC 6466; GC6466, read-out: MINIMAL INHIBITORY CONCENTRATION MIC, pre-incubated in Mouse Serum) was 0.25 µg/mL (≈ 0.331 µM), the MIC (S. aureus GC 6466; GC6466, read-out: MINIMAL INHIBITORY CONCENTRATION MIC, pre-incubated in Water) was 0.25 µg/mL (≈ 0.331 µM) and the MIC (S. typhimurium GC 2172; [1]) was 8 µg/mL (≈ 10.6 µM). For the same compound, the MIC (S. typhimurium GC 2172; [2]) was > 64 µg/mL, the MIC (S. pneumoniae* GC 4465; [1]) was 0.12 µg/mL (≈ 0.159 µM) and the MIC (S. pneumoniae* GC 4465; [2]) was 0.25 µg/mL (≈ 0.331 µM). The MIC (E. coli GC 2203; GC2203, read-out: MINIMAL INHIBITORY CONCENTRATION MIC, pre-incubated in Mouse Serum) was 1 µg/mL (≈ 1.32 µM), the MIC (E. coli GC 2203; GC2203, read-out: MINIMAL INHIBITORY CONCENTRATION MIC, pre-incubated in Water) was > 64 µg/mL and the MIC (E. coli GC 2272; GC2272, read-out: MINIMAL INHIBITORY CONCENTRATION MIC, pre-incubated in Mouse Serum) was 2 µg/mL (≈ 2.65 µM). It also gave an MIC (E. coli GC 2272; GC2272, read-out: MINIMAL INHIBITORY CONCENTRATION MIC, pre-incubated in Water) of 64 µg/mL (≈ 84.7 µM), an MIC (E. faecium GC 2243; GC2243, read-out: MINIMAL INHIBITORY CONCENTRATION MIC, pre-incubated in Mouse Serum) of 0.5 µg/mL (≈ 0.662 µM) and an MIC (E. faecium GC 2243; GC2243, read-out: MINIMAL INHIBITORY CONCENTRATION MIC, pre-incubated in Water) of 1 µg/mL (≈ 1.32 µM). For the same compound, the MIC (E. faecalis GC 4555; GC4555, read-out: MINIMAL INHIBITORY CONCENTRATION MIC, pre-incubated in Mouse Serum) was 1 µg/mL (≈ 1.32 µM), the MIC (E. faecalis GC 4555; GC4555, read-out: MINIMAL INHIBITORY CONCENTRATION MIC, pre-incubated in Water) was 2 µg/mL (≈ 2.65 µM) and the MIC (E. coli GC 6465; GC6465, read-out: MINIMAL INHIBITORY CONCENTRATION MIC, pre-incubated in Mouse Serum) was 8 µg/mL (≈ 10.6 µM). For the same compound, the MIC (E. coli GC 6465; GC6465, read-out: MINIMAL INHIBITORY CONCENTRATION MIC, pre-incubated in Water) was > 64 µg/mL, the MIC (S. agalactiae GC 4564; GC4564, read-out: MINIMAL INHIBITORY CONCENTRATION MIC, pre-incubated in Mouse Serum) was 0.5 µg/mL (≈ 0.662 µM) and the MIC (S. agalactiae GC 4564; GC4564, read-out: MINIMAL INHIBITORY CONCENTRATION MIC, pre-incubated in Water) was 0.5 µg/mL (≈ 0.662 µM). For the same compound, the MIC (E. coli; 20 h, read-out: Range of MIC, E. coli (Mouse Serum)) was 1 to 2 µg/mL (≈ 1.32 to 2.65 µM), the MIC (E. coli; read-out: Range of MIC, E. coli (mouse serum)) was 1 to 2 µg/mL (≈ 1.32 to 2.65 µM) and the MIC (E. faecalis GC 2267; GC2267, read-out: MINIMAL INHIBITORY CONCENTRATION MIC, pre-incubated in Mouse Serum) was 2 µg/mL (≈ 2.65 µM). For the same compound, the MIC (E. faecalis GC 2267; GC2267, read-out: MINIMAL INHIBITORY CONCENTRATION MIC, pre-incubated in Water) was 4 µg/mL (≈ 5.29 µM), the MIC (E. coli GC 4560; GC4560, read-out: MINIMAL INHIBITORY CONCENTRATION MIC, pre-incubated in Mouse Serum) was 0.5 µg/mL (≈ 0.662 µM) and the MIC (E. coli GC 4560; GC4560, read-out: MINIMAL INHIBITORY CONCENTRATION MIC, pre-incubated in Water) was 2 µg/mL (≈ 2.65 µM). The MIC (E. coli GC 2231; GC2231, read-out: MINIMAL INHIBITORY CONCENTRATION MIC, pre-incubated in Mouse Serum) was 2 µg/mL (≈ 2.65 µM), the MIC (E. coli GC 2231; GC2231, read-out: MINIMAL INHIBITORY CONCENTRATION MIC, pre-incubated in Water) was > 64 µg/mL and the MIC (Staph.; read-out: Range of MIC, Staph (Mouse Serum)) was 0.25 to 2 µg/mL (≈ 0.331 to 2.65 µM). For the same compound, the MIC (Staph.; read-out: Range of MIC, Staph (Water)) was 0.5 to 4 µg/mL (≈ 0.662 to 5.29 µM), the MIC (Staph.; read-out: Range of MIC, Staph. (mouse serum)) was 0.25 to 2 µg/mL (≈ 0.331 to 2.65 µM) and the MIC (Staph.; read-out: Range of MIC, Staph. (water)) was 0.5 to 4 µg/mL (≈ 0.662 to 5.29 µM).
